Source: patent US11014904B2, “1,2,4-triazine-3-amine derivative, preparation method therefor, and use thereof in medicine” (Jiangsu Hengrui Medicine Co., Ltd., priority 2017, dated 2021)

Legend:
[1] = molecular target: T1, adenosine A2a receptor (A2aR) (Homo sapiens, UniProt P29274); assay: Inhibition of the adenosine A2a receptor cAMP signaling pathway in CHO-K1/A2aR cells (HTRF); format: cell-based; details: CHO-K1/A2aR cells, cAMP, NECA 20 nM; Table 1
T1 construct: expressed in transfected cells; host or cells: CHO-K1
T1 sequence (P29274 whole entry): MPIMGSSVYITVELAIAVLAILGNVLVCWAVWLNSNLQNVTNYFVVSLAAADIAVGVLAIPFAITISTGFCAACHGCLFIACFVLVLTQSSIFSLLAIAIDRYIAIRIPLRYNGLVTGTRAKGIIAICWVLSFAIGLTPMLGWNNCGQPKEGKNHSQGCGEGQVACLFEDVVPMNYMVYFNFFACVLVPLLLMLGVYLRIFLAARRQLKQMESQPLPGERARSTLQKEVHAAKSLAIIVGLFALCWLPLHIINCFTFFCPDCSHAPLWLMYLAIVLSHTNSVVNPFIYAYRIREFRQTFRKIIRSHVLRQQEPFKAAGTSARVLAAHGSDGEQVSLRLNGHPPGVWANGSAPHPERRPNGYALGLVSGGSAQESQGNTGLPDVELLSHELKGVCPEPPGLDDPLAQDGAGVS
Source text: (§1) Determination of the inhibition activity of the compounds of the present invention on the adenosine A2a receptor (A2aR) cAMP signaling pathway, the adenosine A2b receptor (A2bR) cAMP signaling pathway, the adenosine A1 receptor (A1R) cAMP signaling pathway and the adenosine A3 receptor (A3R) cAMP signaling pathway.
(§2) The inhibition activity of the compounds of the present invention on the adenosine A2a receptor (A2aR) cAMP signaling pathway, the adenosine A2b receptor cAMP signaling pathway, the adenosine A1 receptor cAMP signaling pathway and the adenosine A3 receptor cAMP signaling pathway was determined by the following method. The experimental method is briefly described as follows:
2.1 Adenosine A2a receptor
CHO-K1/A2aR cells were cultured in DMEM/F12 medium containing 10% fetal bovine serum and 800 μg/ml bleomycin. The cells were digested with the cell separation buffer during the experiment. The cells were resuspended in the balanced salt buffer containing 20 mM HEPES and 0.1% bovine serum albumin and counted, and the cell density was adjusted to 10^6 cells/ml. In the 384-well plate, each well was added with 5 μl of cell suspension, and 2.5 μl of test compound (4× concentration) formulated with the balanced salt buffer containing 20 mM HEPES, 0.1% bovine serum albumin, 54 μM rolipram and 2.7 U/ml adenosine deaminase, and the plate was incubated at room temperature for 30 minutes. Each well was then added with 2.5 μl of […] (4× concentration) formulated with the balanced salt buffer containing 20 mM HEPES, 0.1% bovine serum albumin, 54 μM rolipram and 2.7 U/ml adenosine deaminase, and the plate was incubated at room temperature for 30 minutes. The final concentrations of the compounds were: 10000, 2000, 400, 80, 16, 3.2, 0.64, 0.128, 0.0256, 0.00512, and 0.001024 nM. The final concentration of […] was 20 nM. Intracellular cAMP concentration was detected with the cAMP dynamic 2 kit. cAMP-d2 and Anti-cAMP-Eu-Cryptate were diluted respectively with the cAMP lysis buffer at a ratio of 1:4. Each well was added with 5 μl of diluted cAMP-d2, followed by addition of 5 μl of diluted Anti-cAMP-Eu-Cryptate, and the plate was incubated at room temperature in the dark for 1 hour. The HTRF signal values were read by the PHERAstar multi-function microplate reader.

[2] = molecular target: T2, adenosine A2b receptor (A2bR) (Homo sapiens, UniProt P29275); assay: Inhibition of the adenosine A2b receptor cAMP signaling pathway in CHO-K1/A2bR cells (HTRF); format: cell-based; details: ethyl carbazole 1 μM, Table 2
T2 construct: expressed in transfected cells; host or cells: CHO-K1
T2 sequence (P29275 1-332): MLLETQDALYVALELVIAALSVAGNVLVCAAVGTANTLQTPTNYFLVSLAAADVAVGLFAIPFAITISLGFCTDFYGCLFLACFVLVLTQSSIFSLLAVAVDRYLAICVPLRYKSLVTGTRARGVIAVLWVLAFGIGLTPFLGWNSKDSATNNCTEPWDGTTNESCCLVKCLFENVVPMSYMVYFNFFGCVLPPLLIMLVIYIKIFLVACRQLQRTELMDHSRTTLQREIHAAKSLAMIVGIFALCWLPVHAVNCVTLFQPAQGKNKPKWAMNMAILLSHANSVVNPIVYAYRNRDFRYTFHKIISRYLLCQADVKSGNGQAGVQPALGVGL
Source text: as §1, §2
2.2 Adenosine A2b Receptor
CHO-K1/A2bR cells were cultured in DMEM/F12 medium containing 10% fetal bovine serum and 1 mg/ml G418. The cells were digested with the cell separation buffer during the experiment. The cells were resuspended in the balanced salt buffer containing 20 mM HEPES and 0.1% bovine serum albumin and counted, and the cell density was adjusted to 10^6 cells/ml. In the 384-well plate, each well was added with 5 μl of cell suspension, and 2.5 μl of test compound (4× concentration) formulated with the balanced salt buffer containing 20 mM HEPES, 0.1% bovine serum albumin, 54 μM rolipram and 2.7 U/ml adenosine deaminase, and the plate was incubated at room temperature for 30 minutes. Each well was then added with 2.5 μl of […] (4× concentration) (Torcis, 1691/10) formulated with the balanced salt buffer containing 20 mM HEPES, 0.1% bovine serum albumin, 54 μM rolipram and 2.7 U/ml adenosine deaminase, and the plate was incubated at room temperature for 30 minutes. The final concentrations of the compounds were: 100000, 10000, 1000, 100, 10, 1, 0.1 and 0 nM. The final concentration of […] was 1 μM. Intracellular cAMP concentration was detected with the cAMP dynamic 2 kit. cAMP-d2 and Anti-cAMP-Eu-Cryptate were diluted respectively with the cAMP lysis buffer at a ratio of 1:4. Each well was added with 5 μl of diluted cAMP-d2, followed by addition of 5 μl of diluted Anti-cAMP-Eu-Cryptate, and the plate was incubated at room temperature in the dark for 1 hour. The HTRF signal values were read by the PHERAstar multi-function microplate reader.

Row | IC50 [1] [nM] | IC50 [2] [nM] | SMILES
1 | 0.4 | 46 | Cc1ccc(-c2nc(N)nnc2-c2cc(C)c3ncccc3c2)o1 [Example 5, 5-(5-Methylfuran-2-yl)-6-(8-methylquinolin-6-yl)-1,2,4-triazin-3-amine]
2 | 0.4 | 17 | COc1ccnc2ccc(-c3nnc(N)nc3-c3ccccc3)cc12 [Example 23, 6-(4-Methoxyquinolin-6-yl)-5-phenyl-1,2,4-triazin-3-amine]
3 | 1.6 | 18 | Cc1ncnc2ccc(-c3nnc(N)nc3-c3ccc(Cl)cc3)cc12 [Example 46, 5-(4-Chlorophenyl)-6-(4-methylquinazolin-6-yl)-1,2,4-triazin-3-amine]
4 | 0.1 | 3 | Cc1ccnc2ccc(-c3nnc(N)nc3-c3ccccc3)cc12 [Example 14, 6-(4-Methylquinolin-6-yl)-5-phenyl-1,2,4-triazin-3-amine]
5 | 1.5 | 4 | COc1cc(-c2nnc(N)nc2-c2ccccc2)cc2cccnc12 [Example 25, 6-(8-Methoxyquinolin-6-yl)-5-phenyl-1,2,4-triazin-3-amine]
6 | 0.7 | 4 | Nc1nnc(-c2cc(Cl)c3ncccc3c2)c(-c2ccccc2)n1 [Example 4, 6-(8-Chloroquinolin-6-yl)-5-phenyl-1,2,4-triazin-3-amine]
